Data as given in article PMC4139061, “Structural basis of nucleoside and nucleoside drug selectivity by concentrative nucleoside transporters” (eLife, 2014).
“And” between values parts separate entries of the source, which are not always exact repeats. Equal entries are not always repeated.

Experiments:
vcCNT [1] = target: T1, vcCNT (Vibrio cholerae, UniProt Q9KPL5); assay: biochemical; format: binding; conditions: KD
vcCNT [2] = target: T1, vcCNT; assay: biochemical; format: binding
Protocol: The fluorescence anisotropy after each addition was measured. Each titration was performed at least three times. The data for the three titrations were simultaneously fit to a one-site competitive binding model based off of Wang's method ([Wang, 1995]) using nonlinear least-squares analysis in GraphPad Prism to obtain a dissociation constant and standard error.

hCNT2 = hCNT2 (Homo sapiens, UniProt O43868); assay: two-electrode voltage-clamp of Na+ currents in Xenopus oocytes expressing hCNT2; format: cell-based; conditions: data not shown
hCNT2, sequence (O43868 whole entry): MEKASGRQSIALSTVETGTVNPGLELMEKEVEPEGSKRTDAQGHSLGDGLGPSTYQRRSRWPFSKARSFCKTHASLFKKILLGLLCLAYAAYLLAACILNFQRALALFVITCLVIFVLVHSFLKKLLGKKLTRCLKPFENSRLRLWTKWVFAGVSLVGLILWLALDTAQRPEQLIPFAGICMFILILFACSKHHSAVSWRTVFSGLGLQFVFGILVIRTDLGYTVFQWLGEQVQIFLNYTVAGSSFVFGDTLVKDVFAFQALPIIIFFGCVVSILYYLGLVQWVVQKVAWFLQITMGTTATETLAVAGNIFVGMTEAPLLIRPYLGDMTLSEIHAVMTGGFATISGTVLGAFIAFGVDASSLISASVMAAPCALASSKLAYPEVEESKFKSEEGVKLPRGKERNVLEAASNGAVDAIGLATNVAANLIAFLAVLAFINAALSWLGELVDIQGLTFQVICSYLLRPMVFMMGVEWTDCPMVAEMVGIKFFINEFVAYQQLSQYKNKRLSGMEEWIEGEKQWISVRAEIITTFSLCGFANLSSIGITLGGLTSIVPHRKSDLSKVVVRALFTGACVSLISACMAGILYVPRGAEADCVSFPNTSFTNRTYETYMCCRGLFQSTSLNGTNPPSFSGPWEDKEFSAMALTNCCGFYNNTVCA
From the text: (§1) To detect nucleoside transport by hCNTs, we turned to two-electrode voltage-clamp electrophysiological recording. Because hCNTs are Na^+-nucleoside symporters, one can measure the current generated by the Na^+ transport that is coupled with nucleoside transport. We injected Xenopus oocytes with mRNA coding for each of the hCNTs and measured inward Na^+ currents elicited by the addition of different nucleosides to the extracellular side.
(§2) The genes coding for the three hCNTs and vcCNT were cloned into a pGEM-HE vector. Plasmids were linearized using either SphI or NheI, and mRNA was transcribed using the mMESSAGE mMACHINE T7 Transcription Kit (Ambion, Grand Island, NY). Defolliculated Xenopus laevis oocytes were purchased from Ecocyte Bioscience (Austin, TX). Individual oocytes were injected with 40 ng of mRNA using a 10-μl microdispenser (Drummond Scientific, Broomall, PA) fitted with a tapered glass pipette tip and incubated at 17 °C for 4–5 days in ND96 buffer (96 mM NaCl, 2 mM KCl, 1 mM MgCl2, 1.8 mM CaCl2, and 5 mM HEPES pH 7.5) with 0.1% penicillin and streptomycin before recording.
The oocyte-recording chamber was gravity-perfused with ND96 buffer at a rate of 2 ml/min. Membrane currents were measured using an Oocyte Clamp (OC-725C; Warner Instruments, Hamden, CT). Individual oocytes were penetrated with two microelectrodes filled with 3 M KCl (0.5–1.0 MΩ). […]

hCNT3 (375L/446V) = hCNT3 (375L/446V) (Homo sapiens, UniProt Q9HAS3, L446V/V375L); assay: two-electrode voltage-clamp total charge in Xenopus oocytes expressing hCNT3 (375L/446V); format: cell-based; conditions: 400 μM nucleoside; hCNT3 (375L/446V)-expressing Xenopus oocytes; mean of Exp. 1-11
hCNT3 (375L/446V), sequence (Q9HAS3 whole entry V375L/L446V): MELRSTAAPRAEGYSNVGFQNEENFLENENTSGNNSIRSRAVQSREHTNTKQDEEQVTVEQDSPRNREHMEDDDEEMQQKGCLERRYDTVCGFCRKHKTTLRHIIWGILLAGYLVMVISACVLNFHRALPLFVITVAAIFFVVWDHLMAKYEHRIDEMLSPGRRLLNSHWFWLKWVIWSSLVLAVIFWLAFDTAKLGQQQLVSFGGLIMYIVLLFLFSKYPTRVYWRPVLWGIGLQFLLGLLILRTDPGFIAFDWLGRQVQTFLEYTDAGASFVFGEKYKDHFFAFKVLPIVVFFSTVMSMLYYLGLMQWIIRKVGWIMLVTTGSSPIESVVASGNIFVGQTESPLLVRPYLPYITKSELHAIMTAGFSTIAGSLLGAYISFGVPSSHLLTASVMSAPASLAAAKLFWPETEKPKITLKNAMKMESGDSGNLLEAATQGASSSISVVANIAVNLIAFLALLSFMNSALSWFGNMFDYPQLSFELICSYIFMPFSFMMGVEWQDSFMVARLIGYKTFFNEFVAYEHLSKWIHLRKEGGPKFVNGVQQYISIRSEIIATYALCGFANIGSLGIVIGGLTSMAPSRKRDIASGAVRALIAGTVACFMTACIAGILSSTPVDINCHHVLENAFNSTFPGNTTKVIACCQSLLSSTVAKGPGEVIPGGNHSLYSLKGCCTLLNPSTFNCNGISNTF
From the text: In the paradigm of the alternating-access mechanism of sodium-coupled symporters ([Krishnamurthy et al., 2009]), substrate release is achieved by the transition from the inward-facing occluded to the inward-facing open state (Figure 6C).
(§3) Figure 6. […] (A) Model of hCNT3 nucleo-pocket. […] (B) Model of hCNT1 nucleo-pocket. […] (C) Hypothetical alternating-access mechanism of vcCNT. A cartoon representation of the different conformational states along the transport cycle is depicted. The transport domain (including HP1, HP2, TM4b, and TM7b) and TM6 are shown as cylinders. […] The nucleo-pocket in the inward-occluded conformation (bottom right) is located between TM6 and TM4 and is marked with a green star. The inward-occluded conformation is derived from the crystal structures of vcCNT. All other conformations are purely hypothetical. The transition between inward- and outward-facing conformations has been proposed to be achieved by a rigid-body movement of the transport domain across TM6 ([Johnson et al., 2012]). Extracellular and intracellular gating likely involves slight rearrangements of HP2/TM4b and HP1/TM7b, respectively. […] See Figure 6—source data 1 for total charge source data. DOI: http://dx.doi.org/10.7554/eLife.03604.024 Figure 6—source data 1. Total charge data. Total charge transported (μC) was calculated as the area under the curve of the current trace after application of the indicated nucleoside to hCNT-expressing Xenopus oocytes. Each row represents a separate experiment done using a different oocyte. The ratios of the total charge transported for the nucleosides are shown in the last columns.
The genes coding for the three hCNTs and vcCNT were cloned into a pGEM-HE vector. Plasmids were linearized using either SphI or NheI, and mRNA was transcribed using the mMESSAGE mMACHINE T7 Transcription Kit (Ambion, Grand Island, NY). […]
The oocyte-recording chamber was gravity-perfused with ND96 buffer at a rate of 2 ml/min. Membrane currents were measured using an Oocyte Clamp (OC-725C; Warner Instruments, Hamden, CT). […]

hCNT3 = target: T2, hCNT3 (Homo sapiens, UniProt Q9HAS3); assay: two-electrode voltage-clamp of Na+ currents / total charge in Xenopus oocytes expressing hCNT3; format: cell-based
T2 sequence (Q9HAS3 1-691): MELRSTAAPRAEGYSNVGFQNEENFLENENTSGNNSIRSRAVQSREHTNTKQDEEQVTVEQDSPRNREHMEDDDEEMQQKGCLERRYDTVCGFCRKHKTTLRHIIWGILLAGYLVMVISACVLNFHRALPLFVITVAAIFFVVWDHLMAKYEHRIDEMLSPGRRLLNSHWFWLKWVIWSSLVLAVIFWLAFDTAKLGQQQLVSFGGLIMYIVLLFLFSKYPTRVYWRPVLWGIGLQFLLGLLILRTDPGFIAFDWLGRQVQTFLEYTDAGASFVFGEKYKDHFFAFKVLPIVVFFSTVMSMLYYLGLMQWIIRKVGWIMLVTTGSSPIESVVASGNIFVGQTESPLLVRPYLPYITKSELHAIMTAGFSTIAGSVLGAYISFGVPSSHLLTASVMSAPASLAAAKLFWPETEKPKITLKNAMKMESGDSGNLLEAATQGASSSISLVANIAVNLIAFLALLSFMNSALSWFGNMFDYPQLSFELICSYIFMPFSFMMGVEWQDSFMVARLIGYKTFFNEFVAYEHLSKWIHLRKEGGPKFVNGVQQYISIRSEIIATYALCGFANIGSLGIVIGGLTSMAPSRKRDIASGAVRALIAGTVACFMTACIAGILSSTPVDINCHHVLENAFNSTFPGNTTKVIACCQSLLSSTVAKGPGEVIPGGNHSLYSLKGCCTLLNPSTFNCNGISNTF
From the text: as §1, §2
(§4) The oocyte-recording chamber was gravity-perfused with ND96 buffer at a rate of 2 ml/min. Membrane currents were measured using an Oocyte Clamp (OC-725C; Warner Instruments, Hamden, CT). Individual oocytes were penetrated with two microelectrodes filled with 3 M KCl (0.5–1.0 MΩ). All electrophysiological experiments were conducted at room temperature. The OC-725C Oocyte Clamp was computer-interfaced via an Axon Digidata 1550 and controlled by Axoscope software (Molecular Devices, Sunnyvale, CA). The current signals were filtered at 20 Hz and sampled at intervals of 20 ms. The signals were filtered at 0.5 Hz by use of pCLAMP 10.4 software for data presentation. […] Cells were discarded if resting membrane potentials were unstable or more positive than −30 mV. Oocyte membrane potentials were clamped at −90 mV for holding potentials to measure transporter-generated currents. All data are shown as means ± SEM.

hCNT1 = target: T3, hCNT1 (Homo sapiens, UniProt O00337); assay: two-electrode voltage-clamp of Na+ currents / total charge in Xenopus oocytes expressing hCNT1; format: cell-based; conditions: 200 μM nucleoside; hCNT1-expressing Xenopus oocytes; mean of Exp. 1-11
T3 sequence (O00337 1-649): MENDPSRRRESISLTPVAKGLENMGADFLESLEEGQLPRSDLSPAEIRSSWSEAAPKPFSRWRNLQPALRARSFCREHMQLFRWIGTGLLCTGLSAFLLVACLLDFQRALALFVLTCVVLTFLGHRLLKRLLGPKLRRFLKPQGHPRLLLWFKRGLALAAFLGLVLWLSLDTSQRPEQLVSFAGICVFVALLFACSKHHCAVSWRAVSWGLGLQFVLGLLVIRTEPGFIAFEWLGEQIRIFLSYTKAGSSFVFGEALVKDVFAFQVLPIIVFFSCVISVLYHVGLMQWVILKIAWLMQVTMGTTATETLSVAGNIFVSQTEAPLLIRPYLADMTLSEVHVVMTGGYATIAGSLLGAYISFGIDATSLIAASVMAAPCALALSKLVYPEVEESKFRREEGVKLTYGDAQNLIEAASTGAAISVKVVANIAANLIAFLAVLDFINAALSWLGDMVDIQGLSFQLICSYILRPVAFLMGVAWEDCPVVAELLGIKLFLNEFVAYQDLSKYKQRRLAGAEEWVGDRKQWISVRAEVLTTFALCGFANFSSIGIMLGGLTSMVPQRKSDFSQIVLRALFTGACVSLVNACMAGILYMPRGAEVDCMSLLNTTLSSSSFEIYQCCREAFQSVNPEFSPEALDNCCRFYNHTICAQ
From the text: as §1, §2, §4

hCNT1 (353V/424L) = hCNT1 (353V/424L) (Homo sapiens, UniProt O00337, L353V/V424L); assay: two-electrode voltage-clamp total charge in Xenopus oocytes expressing hCNT1 (353V/424L); format: cell-based; conditions: 400 μM nucleoside, hCNT1 (353V/424L)-expressing Xenopus oocytes
hCNT1 (353V/424L), sequence (O00337 whole entry L353V/V424L): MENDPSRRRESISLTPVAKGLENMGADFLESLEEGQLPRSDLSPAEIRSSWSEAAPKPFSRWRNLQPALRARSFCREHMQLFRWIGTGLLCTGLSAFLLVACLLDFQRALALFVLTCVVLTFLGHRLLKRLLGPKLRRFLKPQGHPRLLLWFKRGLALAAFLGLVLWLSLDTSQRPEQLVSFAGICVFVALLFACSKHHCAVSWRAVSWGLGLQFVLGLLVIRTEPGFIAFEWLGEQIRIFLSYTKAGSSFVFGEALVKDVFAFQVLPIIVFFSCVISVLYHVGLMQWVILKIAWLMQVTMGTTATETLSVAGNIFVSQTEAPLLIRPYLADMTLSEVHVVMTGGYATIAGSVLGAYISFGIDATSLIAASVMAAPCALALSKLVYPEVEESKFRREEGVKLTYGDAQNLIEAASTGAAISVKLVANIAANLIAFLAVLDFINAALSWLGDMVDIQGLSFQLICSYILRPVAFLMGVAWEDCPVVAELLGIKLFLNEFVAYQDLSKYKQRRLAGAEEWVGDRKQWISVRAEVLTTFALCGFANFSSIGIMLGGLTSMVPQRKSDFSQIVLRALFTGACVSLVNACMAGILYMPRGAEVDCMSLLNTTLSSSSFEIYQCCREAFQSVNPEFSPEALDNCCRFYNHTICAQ
From the text: as §3, §2
The oocyte-recording chamber was gravity-perfused with ND96 buffer at a rate of 2 ml/min. Membrane currents were measured using an Oocyte Clamp (OC-725C; Warner Instruments, Hamden, CT). Individual oocytes were penetrated with two microelectrodes filled with 3 M KCl (0.5–1.0 MΩ). All electrophysiological experiments were conducted at room temperature. The OC-725C Oocyte Clamp was computer-interfaced via an Axon Digidata 1550 and controlled by Axoscope software (Molecular Devices, Sunnyvale, CA). The current signals were filtered at 20 Hz and sampled at intervals of 20 ms.

hCNTs = conditions: cited from earlier work

T1 sequence (Q9KPL5 entry or part of it): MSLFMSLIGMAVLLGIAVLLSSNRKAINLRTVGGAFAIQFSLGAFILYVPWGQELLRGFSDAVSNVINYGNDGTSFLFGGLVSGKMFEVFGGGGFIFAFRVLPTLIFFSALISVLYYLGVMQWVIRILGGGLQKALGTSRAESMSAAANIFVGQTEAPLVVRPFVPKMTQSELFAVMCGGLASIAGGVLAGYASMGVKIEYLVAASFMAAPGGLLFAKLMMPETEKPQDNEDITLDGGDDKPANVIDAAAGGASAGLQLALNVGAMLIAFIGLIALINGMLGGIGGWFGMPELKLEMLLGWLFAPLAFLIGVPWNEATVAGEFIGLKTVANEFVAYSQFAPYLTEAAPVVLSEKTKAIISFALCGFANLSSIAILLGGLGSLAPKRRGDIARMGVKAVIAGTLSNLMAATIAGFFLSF

Which Kd (vcCNT [1]) does the source give for `Cc1cc2cn([C@@H]3O[C@H](CO)[C@@H](O)[C@H]3O)c(=O)nc2[nH]1` [pyrrolo-cytidine, reference compound] here?
Its Kd is 0.9 µM and 0.94 µM.

With `O=c1[nH]c(=O)n([C@@H]2O[C@H](CO)[C@@H](O)[C@H]2O)cc1I` [5-iodouridine] as the compound, how does the Kd (vcCNT [2]) read?
The Kd was 58 ± 5 µM.

Which “transport by hCNT2” value (hCNT2) does the source give for `Nc1ccn([C@@H]2O[C@H](CO)[C@@H](O)C2(F)F)c(=O)n1` [gemcitabine] here?
Its value is “transported neither compound”.

And the “Total charge transported, Mean” value (hCNT3 (375L/446V))?
The value was 5.697 μC.

What about the “KD higher than that for cytidine” value (vcCNT [2]) of the same compound?
Its value is about 22 fold.

What about the “Total charge transported, Mean” value (hCNT3; 200 μM nucleoside, hCNT3-expressing Xenopus oocytes, mean of Exp. 1-14) of the same compound?
The value was 7.084 μC.

And the “Na+ current on addition of nucleoside” value (hCNT3; hCNT3-expressing oocytes, 200 μM)?
Its value is “induced Na^+ currents”.

What about the “Total charge transported, Mean” value (hCNT1) of the same compound?
Its value is 0.127 μC.

And the “Total charge transported, Mean” value (hCNT1 (353V/424L); mean of Exp. 1-8)?
The value was 0.692 μC.

What about the Total charge transported (hCNT1 (353V/424L); single oocyte, listed as Gem) of the same compound?
The Total charge transported was 0.743 μC and 0.542 μC and 0.572 μC and 0.858 μC and 0.563 μC and 0.586 μC and 0.813 μC.

Which Kd (vcCNT [2]) does the source give for `O=c1ncccn1[C@@H]1O[C@H](CO)[C@@H](O)[C@H]1O` [zebularine] here?
The Kd was 120 ± 5 µM.

What about the “loss of binding affinity relative to uridine” value (vcCNT [2]; fold, vcCNT) of the same compound?
The value was “threefold”.

With `Nc1ncnc2c1ncn2[C@@H]1O[C@H](CO)[C@@H](O)[C@H]1O` [adenosine] as the compound, how does the Kd (vcCNT [2]) read?
The Kd was 470 ± 100 µM.

For `O=c1[nH]c(=O)n([C@@H]2O[C@H](CO)[C@@H](O)[C@H]2O)cc1F` [5-fluorouridine], which Kd (vcCNT [2]) is on record?
Its Kd is 16 ± 1 µM.

And the “KD lower than the KD for uridine” value (vcCNT [2]; fold, vcCNT)?
Its value is “twofold”.

With `O=c1ccn([C@@H]2O[C@H](CO)C[C@H]2O)c(=O)[nH]1` [3′-deoxyuridine] as the compound, how does the Kd (vcCNT [2]) read?
The Kd was over 2800 µM.

For `Cc1cn([C@@H]2O[C@H](CO)[C@@H](O)[C@H]2O)c(=O)[nH]c1=O` [5-methyluridine], which Kd (vcCNT [2]) is on record?
Its Kd is 61 ± 7 µM.

For `Nc1ccn([C@@H]2O[C@H](CO)[C@@H](O)[C@@H]2O)c(=O)n1` [cytarabine], which “binding and transport by hCNTs” value (hCNTs; ref Clarke et al., 2006) is on record?
The value was “no significant binding and transport”.

With `O=c1ccn([C@@H]2O[C@H](CO)[C@@H](O)[C@H]2O)c(=O)[nH]1` [uridine] as the compound, how does the Km (hCNTs; reported Km values, ref Molina-Arcas et al., 2009) read?
Its Km is 22 to 80 µM.

Which Kd (vcCNT [2]) does the source give for `O=c1[nH]c(=O)n([C@@H]2O[C@H](CO)[C@@H](O)[C@H]2O)cc1Cl` [5-chlorouridine] here?
The Kd was 14 ± 1 µM.

With `O=c1ccn([C@H]2C[C@H](O)[C@@H](CO)O2)c(=O)[nH]1` [2′-deoxyuridine] as the compound, how does the Kd (vcCNT [2]) read?
Its Kd is 170 ± 10 µM.

With `Cn1c(=O)ccn([C@@H]2O[C@H](CO)[C@@H](O)[C@H]2O)c1=O` [3-methyluridine] as the compound, how does the Kd (vcCNT [2]) read?
The Kd was 520 ± 80 µM.

With `NC(=O)c1ncn([C@@H]2O[C@H](CO)[C@@H](O)[C@H]2O)n1` [ribavirin] as the compound, how does the Kd (vcCNT [2]) read?
Its Kd is 1530 µM.

For `C[C@H]1O[C@@H](n2ccc(=O)[nH]c2=O)[C@H](O)[C@@H]1O` [5'-deoxyuridine], which Kd (vcCNT [2]) is on record?
Its Kd is over 2800 µM.
